How the values were obtained:
MPC-HIF2a spheroids = test: Growth of non-irradiated tumor spheroids; type: cell-based, mouse; conditions: 10 µM compound, linear regression between 0 and 9 days
Method: (§1) As a first pilot study, growth responses of MPC-HIF2α spheroids were investigated after two different radiation treatments such as single-dose external beam irradiation (X-ray) and incubation with [^177Lu]LuCl3, respectively. NO-COXIBs were tested at 10 µM for additional effects on radiation treatments against a vehicle-treated control (w/o) and celecoxib (Ce).
4. Growth-rate of tumor spheroids in the presence of NO -COXIBS without radiation treatment
Compound Diameter growth rate
Table S2. Effects of NO-COXIBs on spheroid growth; diameter growth rates of non-irradiated MPC-HIF2a spheroids in presence of 10 µM of compounds determined from linear regression between 0 and 9 days after treatment start; (w/o) vehicle control treated with DMSO

purified ovine COX-1 = biological target: T1, purified ovine COX-1 (Ovis aries, UniProt P05979); test: COX Fluorescent Inhibitor Screening Assay, COX-1; type: biochemical
T1 construct: purchased Cayman Chemical 700100
T1 sequence (P05979 25-600): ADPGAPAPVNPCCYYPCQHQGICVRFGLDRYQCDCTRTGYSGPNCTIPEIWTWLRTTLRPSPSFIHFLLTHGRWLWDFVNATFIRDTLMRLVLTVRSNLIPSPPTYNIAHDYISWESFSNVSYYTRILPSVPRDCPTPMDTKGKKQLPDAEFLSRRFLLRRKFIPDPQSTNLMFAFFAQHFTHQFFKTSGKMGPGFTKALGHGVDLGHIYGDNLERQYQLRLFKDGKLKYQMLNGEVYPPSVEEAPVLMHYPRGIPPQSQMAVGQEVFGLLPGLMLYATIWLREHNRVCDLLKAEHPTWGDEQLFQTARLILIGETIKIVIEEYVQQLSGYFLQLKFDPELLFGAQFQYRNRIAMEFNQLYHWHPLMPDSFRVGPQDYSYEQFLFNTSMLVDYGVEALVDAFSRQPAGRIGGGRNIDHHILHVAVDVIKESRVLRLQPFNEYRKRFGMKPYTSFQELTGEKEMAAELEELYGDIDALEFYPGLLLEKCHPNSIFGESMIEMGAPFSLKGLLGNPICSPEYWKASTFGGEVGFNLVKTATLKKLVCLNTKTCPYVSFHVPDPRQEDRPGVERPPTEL
Method: COX inhibition (Table 1) was evaluated in vitro using purified ovine COX-1 and recombinant human COX-2 enzyme in a commercially available “COX Fluorescent Inhibitor Screening Assay KIT” (item no. 700100, Cayman Chemical, Ann Arbor, MI, USA). Celecoxib served as a reference and inhibition data concerning 4a, 4e, 5a and 5e were previously reported by us and is herein discussed for comparison.
COX inhibition activity against ovine COX-1 and human COX-2 was determined using the fluorescence-based COX assay “COX Fluorescent Inhibitor Screening Assay Kit” (catalog number 700100; Cayman Chemical, Ann Arbor, MI, USA) according to the manufacturer’s instructions. Compounds 6a–d were screened at a concentration of 100 µM, all others were assayed in a concentration range of 0.1 nM to 100 μM in duplicate.

[1] = Lipophilicity logD7.4 by HPLC method; type: physicochemical; conditions: HPLC retention on ODP-50 4B column (Shodex Asahipak), phosphate buffer pH 7.4
Method: The lipophilicity of all synthesized compounds was determined as logD7.4, HPLC value by an HPLC method originally described by Donovan and Pescatore.
The logD7.4HPLC value was determined as previously reported by us utilizing an HPLC method originally described by Donovan and Pescatore.

[2] = test system: MPC-HIF2α tumor spheroids; test: Spheroid regrowth assay with external X-ray irradiation; type: cell-based, mouse; conditions: X-ray 15 Gy; 10 µM compound added 2 h post irradiation; controls 83%
Method: as §1
The log2-fold change in spheroid diameter is given as a standardized parameter for spheroid growth, which is positive for growing, near zero for stagnating and negative for shrinking spheroids. Furthermore, regrowth probabilities are given as a parameter to compare how many of the overall studied spheroids in one group recovered within 14 days. Radioprotective effects occurred when compounds were added 2 h before irradiation. In this setup, all compounds accelerated the increase in spheroid size during the regrowth phase compared to controls (Figure 5A, upper panel). Regrowth probabilities of 67–100% under NO-COXIB treatment remained however similar to controls (83%). Radiosensitizing effects occurred when compounds were added 2 h post irradiation. In this setup, all compounds decelerated the increase in spheroid size during the regrowth phase compared to controls.
Genetically modified mouse pheochromocytoma (MPC) cells expressing a codon-optimized Epas1 gene (encoding HIF2α) were cultured as three-dimensional tumor spheroids as published elsewhere. External X-ray beam radiation treatment and [^177Lu]LuCl3 radionuclide treatment was performed as reported previously with some modifications. In brief, spheroids were irradiated with a 200 kV photon beam using a Maxishot X-ray system equipped with a Y.TU/320-D03 tube (YXLON, Hamburg, Germany), growth of spheroids (n = 6) with diameters between 300−400 µm was measured in response to one fixed radiation dose, 15 Gy for X-ray treatment, and 0.25 MBq/mL of [^177Lu]LuCl3 for radionuclide treatment corresponding to a cumulative dose of approximately 2 Gy delivered for 6 days. The applied radiation doses were selected based on the half-maximal spheroid control doses (SCD50) as previously determined for MPC HIF2α spheroids by us. Spheroids were considered as regrown at 100 µm increase in diameter compared to treatment start or at a diameter growth rate of 15 µm per day. Results are reported as spheroid regrowth probability (%).
Figure 5 Effects of NO-COXIBs on radiation treatments of MPC-HIF2α tumor spheroids. (A) Growth responses to X-ray treatment with a radiation dose of 15 Gy in combination with 10 µM NO-COXIBs added to the medium at indicated time points before or after irradiation. (B) Growth responses to [^177Lu]LuCl3 treatment with an initial activity concentration of 0.25 MBq/mL in combination with NO-COXIBs; log2 fold changes in diameter indicate the number of diameter doublings compared to treatment start; 14-day regrowth probability indicates the fraction of spheroids able to regrow within 14 days after treatment start; (black arrows) time point or duration of radiation treatment; (w/o) vehicle controls are shown as black lines; (Ce) celecoxib.

[3] = screened at a concentration of 100 µM

SMILES	IC50 (purified ovine COX-1; [3]) [µM]	chromatographic logD [1]	IC50 (purified ovine COX-1; 0.1 nM to 100 µM in duplicate) [µM]	Diameter growth rate ± SEM (MPC-HIF2a spheroids) [µm/day]	14-day regrowth probability [2]
COc1ccc(-c2cc(CO[N+](=O)[O-])nn2-c2ccc(S(N)(=O)=O)cc2)cc1 [5f, [5-(4-Methoxyphenyl)-1-(4-sulfamoylphenyl)-1H-pyrazol-3-yl]methyl nitrate]	–	3.32	> 100	61.4 ± 5.2	17%
Cc1ccc(-c2c(Cl)c(CO[N+](=O)[O-])nn2-c2ccc(S(C)(=O)=O)cc2)cc1 [5c, {4-Chloro-1-[4-(methylsulfonyl)phenyl]-5-(p-tolyl)-1H-pyrazol-3-yl}methyl nitrate]	–	4.04	> 100	60.4 ± 5.3	17%
COc1ccc(-c2c(Cl)c(CO[N+](=O)[O-])nn2-c2ccc(S(C)(=O)=O)cc2)cc1 [5d, {4-Chloro-5-(4-methoxyphenyl)-1-[4-(methylsulfonyl)phenyl]-1H-pyrazol-3-yl}methyl nitrate]	–	4.02	> 100	61.2 ± 5.5	17%

More lines, main results first:

IC50 (purified ovine COX-1; [3]) [µM]	chromatographic logD [1]	IC50 (purified ovine COX-1; 0.1 nM to 100 µM in duplicate) [µM]	SMILES	Diameter growth rate ± SEM (MPC-HIF2a spheroids) [µm/day]	14-day regrowth probability [2]
> 100	1.82	–	CCC(=O)NS(=O)(=O)c1ccc(-n2nc(CO[N+](=O)[O-])cc2-c2ccc(C)cc2)cc1 [6c, {1-[4-(N-Propionylsulfamoyl)phenyl]-5-(p-tolyl)-1H-pyrazol-3-yl}methyl nitrate]	60.0 ± 5.5	33–40%
> 100	2.27	–	CCC(=O)NS(=O)(=O)c1ccc(-n2nc(CO[N+](=O)[O-])c(Cl)c2-c2ccc(C)cc2)cc1 [6a, {4-Chloro-1-[4-(N-propionylsulfamoyl)phenyl]-5-(p-tolyl)-1H-pyrazol-3-yl}methyl nitrate]	64.1 ± 6.1	33–40%
~100	2.1	–	CCC(=O)NS(=O)(=O)c1ccc(-n2nc(CO[N+](=O)[O-])c(Cl)c2-c2ccc(OC)cc2)cc1 [6b, {4-Chloro-5-(4-methoxyphenyl)-1-[4-(N-propionylsulfamoyl)phenyl]-1H-pyrazol-3-yl}methyl nitrate]	63.1 ± 5.3	0%
> 100	1.55	–	CCC(=O)NS(=O)(=O)c1ccc(-n2nc(CO[N+](=O)[O-])cc2-c2ccc(OC)cc2)cc1 [6d, {5-(4-Methoxyphenyl)-1-[4-(N-propionylsulfamoyl)phenyl]-1H-pyrazol-3-yl}methyl nitrate]	63.7 ± 5.9	33–40%

From article PMC9573605, “Exploring Nitric Oxide (NO)-Releasing Celecoxib Derivatives as Modulators of Radioresponse in Pheochromocytoma Cells” (Molecules, 2022)
